The record followed here is patent US20110160184A1, “Dibenzothiazepine Derivatives and Use Thereof” (ASTRAZENECA AB, priority 2008, published 2011).

Read-outs that look alike come from different tables or passages of the source.

The target in assay [1] is T1, human norepinephrine transporter (Homo sapiens, UniProt P23975).
T1 construct: expressed in transfected cells
As to the kind of experiment: Norepinephrine uptake (fluorescent substrate, HEK293F cells). Format: cell-based. How it is done: An assay for measuring norepinephrine uptake can be carried out as described below. Briefly, test compounds can be evaluated in an 11-point IC50 curve for their ability to inhibit uptake of a proprietary fluorescent substrate (dye) from Molecular Devices that mimics biogenic amine neurotransmitters. A stable population of HEK293F cells transfected with the human norepinephrine transporter (cultured in Freestyle 293 expression medium with […] hygromycin B) can be cryopreserved, then plated and used on the day of the assay. Cells can be at 60 K/well; dye can be 7% (final) of the vendor-recommended reconstitution volume (100%). Compounds can be diluted 1:20 in buffer and incubated with the cells for 30 minutes prior to addition of the dye. In this fluorescence intensity assay, plates can be read after a 20 minute dye incubation to determine percent effect with respect to total signal (0.5% DMSO, final) and background signal (10 μM desipramine, final). The IC50, half of the control response, can be converted to Ki using the using the standard Cheng-Prusoff equation.

Assay [2] concerns the target T2, dopamine D2s receptor (Homo sapiens, UniProt P14416).
T2 construct: expressed in transfected cells; membranes used
As to the kind of experiment: D2 receptor in vitro functional GTPγS assay (block of dopamine-stimulated [35S]-GTPγS binding). Format: biochemical. How it is done: (§1) In vitro experimental assays can generally be carried out as described herein. Briefly, CHO-K1 cells stably transfected with the dopamine D2s receptor can be used in the experiments and maintained in Ham's F12 culture medium supplemented with 2 mM L-glutamine, 10% FBS, and 500 μg/ml Hygromycin.
GTPgS assay can be performed substantially as described by Lazareno, Methods in Molecular Biology, 1999, 106, 231-245. Antagonist activity of compounds can be determined by the ability of test compounds to block dopamine-stimulated [^35S]-GTPγS binding to cell membranes from D2s stably-transfected CHO cells.

Assay [3] addresses T2, dopamine D2s receptor. Briefly: D2 receptor binding assay (3H-raclopride displacement, membranes from D2s-transfected CHO cells). The method, then: as §1
The ability of test compounds to displace ^3H-raclopride at the D2s receptor can be determined on membranes from D2s-transfected CHO cells (Bmax 13 pmol/mg protein). An assay can use a standard 96-well glass-fiber filter plate to retain radioligand bound by the receptor. Retained ^3H can be determined in a TopCount scintillation plate counter following the addition of a liquid scintillant to each well. Compounds can be evaluated for their potency using competition curve analysis, resulting in calculated Ki values.

Another assay concerns the target H1 receptor (Homo sapiens, UniProt P35367). Briefly: H1 receptor binding. As to conditions: read-out: H1 Hu Bind Mean Ki. An excerpt: H1 Receptor Binding The H1 receptor binding method can be carried out in accordance with De Backer et al., Biochem. Biophys. Res. Commun, 1993, 197(3), 1601.
Assay [4] concerns D-Amphetamine-induced Hyperlocomotor Activity. As to the kind of experiment: D-Amphetamine-induced hyperlocomotor activity (LMA) in habituated rat model. Format: in vivo, male Long Evans rats. The conditions noted are these: D-amphetamine 1 mg/kg s.c. How it is done: Studies in vivo can be used to determine the antipsychotic effect and are generally carried out as follows. Briefly, D-Amphetamine-induced Hyperlocomotor Activity (LMA) in a Habituated Rat Model can be assessed in male Long Evans rats using a paradigm that includes a habituation phase followed by administration of 1 mg/kg D-amphetamine. Animals can be allowed to acclimatize to the testing room for 1 hour before being weighed and placed into activity chambers. Thirty minutes after LMA measurement is begun, animals can be briefly removed, dosed via the sub-cutaneous route (s.c.) with vehicle or test drug at different doses and returned to the chambers. After a further 30 minutes, animals can again be removed and dosed with vehicle or D-amphetamine at 1 mg/kg (s.c.). After returning the animals to the activity chambers, LMA can be assessed for a further 60 minutes. Haloperidol (0.1 mg/kg dissolved in H2O) can be administered 15 minutes prior to D-amphetamine via the s.c. route. Statistical analysis can be made of total distance traveled after D-amphetamine administration using ANOVA and Tukey's post hoc analysis where appropriate. All values can be expressed as Mean and SD.

For assay [5], the system named is Conditioned Avoidance Responding. As to the kind of experiment: Conditioned avoidance responding (CAR) assay. Format: in vivo, Male Long-Evans rats. The conditions noted are these: rat. The method, then: Male Long-Evans rats can be trained to traverse to the opposite side of a standard shuttle cage following presentation of an auditory and visual stimulus to avoid delivery of electric shock to the floor of the cage. Daily sessions can consist of up to 80 trials. If a shock is delivered, animals have the opportunity to escape the shock by traversing to the opposite side of the cage. Drug can be administered (via s.c. or p.o. route) 60 minutes prior to testing and the percentage of trials in which shock is avoided and escaped can be recorded.

The mark [6] stands for this setting: HEK cells, fluorescence intensity, read-out: hNET uptake HEK FLInt CR Mean Ki.
Where [7] appears, read: antagonist mode, read-out: D2 Ant GTPγS IC50.
[8] abbreviates: w/NaCl, read-out: D2 binding w/NaCl Ki.

T1 sequence (P23975 whole entry): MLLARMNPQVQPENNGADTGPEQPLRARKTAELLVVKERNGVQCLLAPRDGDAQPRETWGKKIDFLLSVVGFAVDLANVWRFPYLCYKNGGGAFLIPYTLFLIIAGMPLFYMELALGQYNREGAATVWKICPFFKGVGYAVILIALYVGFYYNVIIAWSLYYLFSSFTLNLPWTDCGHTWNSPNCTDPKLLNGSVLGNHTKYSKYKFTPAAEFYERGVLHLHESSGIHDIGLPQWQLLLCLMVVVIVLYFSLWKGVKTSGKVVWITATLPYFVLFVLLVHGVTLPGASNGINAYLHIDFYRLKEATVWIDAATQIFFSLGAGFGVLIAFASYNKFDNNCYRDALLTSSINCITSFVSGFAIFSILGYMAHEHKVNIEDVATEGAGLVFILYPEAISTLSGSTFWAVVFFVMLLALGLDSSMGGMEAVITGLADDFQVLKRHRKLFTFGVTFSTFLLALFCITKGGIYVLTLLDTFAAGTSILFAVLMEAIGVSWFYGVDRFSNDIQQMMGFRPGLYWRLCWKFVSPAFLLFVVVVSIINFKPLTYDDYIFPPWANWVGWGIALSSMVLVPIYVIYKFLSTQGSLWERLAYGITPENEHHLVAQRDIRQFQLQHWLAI
Chain of H1 receptor (P35367 whole entry): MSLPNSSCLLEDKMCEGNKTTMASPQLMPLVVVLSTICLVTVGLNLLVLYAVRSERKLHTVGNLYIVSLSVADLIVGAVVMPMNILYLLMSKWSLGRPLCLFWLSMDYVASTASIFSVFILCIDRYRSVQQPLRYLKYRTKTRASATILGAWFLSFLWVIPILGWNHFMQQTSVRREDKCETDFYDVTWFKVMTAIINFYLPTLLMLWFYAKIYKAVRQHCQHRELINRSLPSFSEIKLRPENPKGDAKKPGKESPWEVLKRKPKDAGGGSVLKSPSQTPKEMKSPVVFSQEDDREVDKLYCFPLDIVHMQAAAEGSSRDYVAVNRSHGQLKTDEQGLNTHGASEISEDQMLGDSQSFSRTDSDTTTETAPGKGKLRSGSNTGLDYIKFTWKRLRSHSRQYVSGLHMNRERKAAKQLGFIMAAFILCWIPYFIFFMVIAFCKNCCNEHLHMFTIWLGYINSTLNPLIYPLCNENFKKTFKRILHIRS
T2 sequence (P14416 1-414 isoform P14416-2): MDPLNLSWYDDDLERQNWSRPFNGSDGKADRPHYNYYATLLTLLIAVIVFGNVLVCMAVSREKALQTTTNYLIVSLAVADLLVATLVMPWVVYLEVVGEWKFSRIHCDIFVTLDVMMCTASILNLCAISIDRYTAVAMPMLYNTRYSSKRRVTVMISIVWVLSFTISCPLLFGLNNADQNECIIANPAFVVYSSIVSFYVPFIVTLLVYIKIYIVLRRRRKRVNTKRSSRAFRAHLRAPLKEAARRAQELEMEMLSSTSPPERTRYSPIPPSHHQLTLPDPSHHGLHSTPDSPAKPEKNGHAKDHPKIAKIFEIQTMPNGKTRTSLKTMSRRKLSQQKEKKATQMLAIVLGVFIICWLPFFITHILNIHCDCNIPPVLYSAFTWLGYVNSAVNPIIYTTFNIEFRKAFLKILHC

As to `Clc1ccc2c(c1)C(N1CCNCC1)=Nc1ccccc1S2` [2-Chloro-11-piperazin-1-yl-dibenzo[b,f][1,4]thiazepine], the values for the Ki (in assay [1] (setting [6]); on dopamine D2s receptor [3] (setting [8]); on H1 receptor) were 41 nM, 0.7 nM and 3.87 nM, respectively. In addition, the IC50 on dopamine D2s receptor [2] (setting [7]) came out at 35 nM.

`CN1CCN(C2=Nc3ccccc3Sc3ccc(Cl)cc32)CC1` [2-Chloro-11-(4-methyl-piperazin-1-yl)-dibenzo[b,f][1,4]thiazepine]: on dopamine D2s receptor [2] (setting [7]), the half-inhibitory concentration (IC50) worked out at 8.4 nM. Moreover, the Ki at dopamine D2s receptor [3] (setting [8]) worked out at 0.49 nM.

On to `Fc1ccc2c(c1)C(N1CCNCC1)=Nc1ccccc1S2` [Example 1, 2-fluoro-11-(piperazin-1-yl)dibenzo[b,f][1,4]thiazepine], for which the “activity in D-amphetamine-induced LMA” value in assay [4] (30 mg/kg (sc)) and in assay [4] (60 mg/kg (sc)) was “showed activity” throughout. Besides, the Ki in assay [1] (HEK293F cells with human NET, Cheng-Prusoff from IC50, one average result, read-out: NET inhibition Ki) was around 10 nM; in assay [1] (setting [6]), 9.6 nM; at dopamine D2s receptor [3] (3H-raclopride, D2s-transfected CHO cell membranes, one average result, read-out: D2 binding Ki) it was around 11 nM; on dopamine D2s receptor [3] (setting [8]) it was 11 nM. In addition, the “activity in conditioned avoidance responding” value in assay [5] (30 mg/kg (sc)) and in assay [5] (60 mg/kg (sc)) was “showed activity” each time. Besides, the half-maximal inhibitory concentration (IC50) was 400 nM on dopamine D2s receptor [2] (setting [7]) and around 404 nM at dopamine D2s receptor [2] (antagonist, dopamine-stimulated [35S]-GTPγS binding, D2s CHO membranes, one average result, read-out: GTPγS IC50).

On to `CN1CCN(C2=Nc3ccccc3Sc3ccc(F)cc32)CC1` [2-Fluoro-11-(4-methyl-piperazin-1-yl)-dibenzo[b,f][1,4]thiazepine], for which the Ki in assay [1] (setting [6]) was found to be 59 nM; at dopamine D2s receptor [3] (setting [8]) it was 1.1 nM; at H1 receptor, 1.82 nM. Moreover, the IC50 on dopamine D2s receptor [2] (setting [7]) amounted to 170 nM.

`c1ccc2c(c1)N=C(N1CCNCC1)c1ccccc1S2` [11-Piperazin-1-yl-dibenzo[b,f][1,4]thiazepine]: the Ki in assay [1] (setting [6]) was 24 nM; on dopamine D2s receptor [3] (setting [8]) it was 37 nM; at H1 receptor, 3.33 nM. The 50% inhibitory concentration (IC50) on dopamine D2s receptor [2] (setting [7]) was found to be 800 nM.
